# Measured values published in publication PMC3448010 (Biochemistry, 2012).
# Several values for one entry are separate records, joined by “and”; a condition that tells them apart may be missing. Equal values may be shown once. Read-outs that look alike come from different tables or passages of the source.
# Legend:
# SULT2A1 [1] = target: T1, SULT2A1 (Homo sapiens, UniProt Q06520); experiment: Presteady state
# T1 sequence (Q06520 1-285): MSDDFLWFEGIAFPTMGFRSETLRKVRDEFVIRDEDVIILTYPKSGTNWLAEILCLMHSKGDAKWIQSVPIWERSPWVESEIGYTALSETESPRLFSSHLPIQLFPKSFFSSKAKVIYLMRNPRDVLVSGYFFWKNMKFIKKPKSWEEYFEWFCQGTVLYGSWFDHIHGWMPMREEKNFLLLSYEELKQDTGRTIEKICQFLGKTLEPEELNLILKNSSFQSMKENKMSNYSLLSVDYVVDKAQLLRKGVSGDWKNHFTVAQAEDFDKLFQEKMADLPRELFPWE
# [2] = cited from earlier work
# SULT2A1 [3] = target: T1, SULT2A1; experiment: Equilibrium ligand binding monitored by intrinsic enzyme fluorescence
# SULT2A1 [4] = target: T1, SULT2A1; experiment: Initial-rate kinetics of raloxifene and DHEA sulfation; details: for Kia: co-substrate extrapolated to zero; for Km: 25 °C, pH 7.4, sequential Bi-Bi fit
# SULT2A1 [5] = target: T1, SULT2A1; details: read-out: typical Km; cited from earlier work
compound,measurement,setting,value
"C[C@]12CC[C@H](O)CC1=CC[C@@H]1[C@@H]2CC[C@]2(C)C(=O)CC[C@@H]12 [DHEA, 5-dehydroepiandrosterone]",Kd,SULT2A1 [1],1100 nM
same,koff,SULT2A1 [1]; enzyme species E· (unliganded),2.1 s⁻¹
same,koff,SULT2A1 [1]; enzyme species PAPS·E·,3 s⁻¹
same,sulfated in-vivo,[2],> 99%
same,Kd,"SULT2A1 [3]; Kd, enzyme species E· (unliganded)",1000 nM
same,Kd,"SULT2A1 [3]; Kd, enzyme species PAP·E·, global fit of titrations at five PAP concentrations",1100 nM
same,synergy between PAP and acceptor,"SULT2A1 [3]; global fit, five PAP concentrations",1.1 (± 0.2)
same,kcat/Km relative to raloxifene,SULT2A1 [4]; DHEA vs raloxifene,135 fold
same,Kia,SULT2A1 [4]; DHEA/PAPS substrate pair,1.8 (0.1) μM
same,positive synergy in the interaction with PAPS,SULT2A1 [4]; from kinetic constants,1.4 fold
"Nc1ncnc2c1ncn2[C@@H]1O[C@H](COP(=O)(O)O)[C@@H](OP(=O)(O)O)[C@H]1O [PAP, 3′, 5′-diphosphoadenosine]",Kd,"SULT2A1 [3]; Kd, enzyme species DHEA·E·",210 nM
same,Kd,"SULT2A1 [3]; Kd, enzyme species Ral·E·",6000 nM
"Nc1ncnc2c1ncn2[C@@H]1O[C@H](COP(=O)(O)OS(=O)(=O)O)[C@@H](OP(=O)(O)O)[C@H]1O [PAPS, 3′-phosphoadenosine 5′-phosphosulfate]",koff,SULT2A1 [1]; enzyme species DHEA·E·,2.1 s^−1 and 1.9 (0.2) s^−1
same,koff,SULT2A1 [1]; enzyme species E· (unliganded),2.1 s^−1 and 2.3 (0.3) s^−1
same,koff,"SULT2A1 [1]; enzyme species RAL·E·, raloxifene 50 μM",50 (2) s^−1
same,faster escape from PAPS·E·raloxifene than from PAPS·E and PAPS·E·DHEA,SULT2A1 [1]; off-rate constants,24 fold
same,weakening in PAPS affinity with raloxifene bound,SULT2A1 [1]; raloxifene prevents gate closure,21 fold
same,Kd,"SULT2A1 [1]; read-out: Kd (koff/kon), enzyme species DHEA·E·",240 nM
same,Kd,"SULT2A1 [1]; read-out: Kd (koff/kon), enzyme species E· (unliganded)",270 nM
same,Kd,"SULT2A1 [1]; read-out: Kd (koff/kon), enzyme species RAL·E·, raloxifene 50 μM",6000 nM
same,Kd,SULT2A1 [3]; enzyme species E· (unliganded),280 nM
same,Km,SULT2A1 [5],~0.3 µM
same,kcat,SULT2A1 [4]; DHEA/PAPS substrate pair,0.7 (0.03) sec^−1
same,Km,SULT2A1 [4]; DHEA/PAPS substrate pair,0.39 µM
same,Kia,SULT2A1 [4]; DHEA/PAPS substrate pair,0.47 (0.06) μM
same,kcat,SULT2A1 [4]; RAL/PAPS substrate pair,0.10 (0.01) sec^−1
same,Km,SULT2A1 [4]; RAL/PAPS substrate pair,5.9 µM
same,Kia,SULT2A1 [4]; RAL/PAPS substrate pair,0.24 (0.04) μM
